Data from ChEMBL document CHEMBL5042493, “Enhancing monoamine oxidase B inhibitory activity via chiral fluorination: Structure-activity relationship, biological evaluation, and molecular docking study” (Eur J Med Chem, 2022).
Blank lines part the entries; values can stand above or below the compound they belong to.

Columns and labels:
[1] = molecular target: T1, Amine oxidase [flavin-containing] A (Homo sapiens, UniProt P21397); experiment: Inhibition of recombinant human MAO-A expressed in Sf9 cells preincubated for 15 min followed by addition of p-tyramine and measured after 60 min by Luminex assay
T1 sequence (P21397 whole entry): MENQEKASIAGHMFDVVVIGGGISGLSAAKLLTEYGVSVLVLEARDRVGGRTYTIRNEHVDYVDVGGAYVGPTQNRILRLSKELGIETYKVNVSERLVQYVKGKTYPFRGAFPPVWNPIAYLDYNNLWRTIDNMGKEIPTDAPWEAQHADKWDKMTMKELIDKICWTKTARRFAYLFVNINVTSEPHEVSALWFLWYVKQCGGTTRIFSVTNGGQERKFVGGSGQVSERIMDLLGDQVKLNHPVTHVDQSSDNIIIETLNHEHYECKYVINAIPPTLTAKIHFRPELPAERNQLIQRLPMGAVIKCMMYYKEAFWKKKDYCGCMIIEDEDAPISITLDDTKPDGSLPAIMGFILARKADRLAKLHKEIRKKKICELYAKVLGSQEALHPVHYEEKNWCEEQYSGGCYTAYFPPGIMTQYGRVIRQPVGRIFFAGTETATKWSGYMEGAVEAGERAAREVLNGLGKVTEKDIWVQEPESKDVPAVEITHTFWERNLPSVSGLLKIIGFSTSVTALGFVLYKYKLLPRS

[2] = molecular target: T2, Amine oxidase [flavin-containing] B (Homo sapiens, UniProt P27338); experiment: Inhibition of recombinant human MAO-B expressed in Sf9 cells preincubated for 15 min followed by addition of benzylamine and measured after 60 min by Luminex assay
T2 sequence (P27338 whole entry): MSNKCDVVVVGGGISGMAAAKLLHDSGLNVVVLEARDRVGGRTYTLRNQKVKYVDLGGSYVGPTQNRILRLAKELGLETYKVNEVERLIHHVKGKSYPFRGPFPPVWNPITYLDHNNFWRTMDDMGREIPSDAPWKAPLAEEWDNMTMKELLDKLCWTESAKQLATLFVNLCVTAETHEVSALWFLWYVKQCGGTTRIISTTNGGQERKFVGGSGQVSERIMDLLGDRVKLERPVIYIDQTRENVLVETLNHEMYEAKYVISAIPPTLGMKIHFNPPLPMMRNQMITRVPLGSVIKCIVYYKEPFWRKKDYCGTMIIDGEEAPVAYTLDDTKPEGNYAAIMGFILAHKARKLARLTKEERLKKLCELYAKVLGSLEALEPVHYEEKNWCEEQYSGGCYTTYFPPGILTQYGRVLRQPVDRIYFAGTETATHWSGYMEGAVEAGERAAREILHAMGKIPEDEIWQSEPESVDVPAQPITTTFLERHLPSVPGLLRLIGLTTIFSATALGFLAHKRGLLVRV

[3] = species: Homo sapiens; experiment: Selectivity index, ratio of IC50 for recombinant human MAO-A expressed in Sf9 cells to IC50 for recombinant human MAO-B expressed in Sf9 cells
[4] = Cmax in Sprague dawley rat at 1 mg/kg, iv measured upto 24 hrs; format: ADME, organism-based; set-up: route intravenous, dose 1 mg/kg, time <=24; conditions: in vivo
[5] = AUC (0-t) in Sprague dawley rat at 1 mg/kg, iv measured upto 24 hrs; format: ADME, organism-based; set-up: route intravenous, dose 1 mg/kg, time <=24; conditions: in vivo
[6] = Half life in Sprague dawley rat at 1 mg/kg, iv measured upto 24 hrs; format: ADME, organism-based; conditions: in vivo
[7] = Volume of distribution at steady state in Sprague dawley rat at 1 mg/kg, iv measured upto 24 hrs; format: ADME, organism-based; conditions: in vivo, read-out: Vdss
[8] = Clearance in Sprague dawley rat at 1 mg/kg, iv measured upto 24 hrs; format: ADME, organism-based; conditions: in vivo
[9] = Cmax in Sprague dawley rat at 5 mg/kg, po measured upto 24 hrs; format: ADME, organism-based; set-up: route oral, dose 5 mg/kg, time <=24; conditions: in vivo
[10] = AUC (0-t) in Sprague dawley rat at 5 mg/kg, po measured upto 24 hrs; format: ADME, organism-based; set-up: route oral, dose 5 mg/kg, time <=24; conditions: in vivo
[11] = Half life in Sprague dawley rat at 5 mg/kg, po measured upto 24 hrs; format: ADME, organism-based; conditions: in vivo
[12] = Oral bioavailability in Sprague dawley rat at 5 mg/kg measured upto 24 hrs; format: ADME, organism-based; conditions: in vivo
[13] = Toxicity in MPTP-induced C57BL/6 mouse model of Parkinson's disease assessed as effect on locomotor activity by measuring rearing activity at 10 mg/kg, ip pretreated for 15 mins followed by MPTP challenge and measured after 5 days post MPTP challenge; format: organism-based; conditions: in vivo, 120 h, time 5 day
[14] = Cmax in Cynomolgus monkey at 1 mg/kg, iv measured upto 24 hrs; format: ADME, organism-based, Macaca fascicularis; set-up: route intravenous, dose 1 mg/kg, time <=24; conditions: in vivo
[15] = AUC (0-t) in Cynomolgus monkey at 1 mg/kg, iv measured upto 24 hrs; format: ADME, organism-based, Macaca fascicularis; set-up: route intravenous, dose 1 mg/kg, time <=24; conditions: in vivo, 24 h
[16] = Half life in Cynomolgus monkey at 1 mg/kg, iv measured upto 24 hrs; format: ADME, organism-based, Macaca fascicularis; conditions: in vivo
[17] = Volume of distribution at steady state in Cynomolgus monkey at 1 mg/kg, iv measured upto 24 hrs; format: ADME, organism-based, Macaca fascicularis; conditions: in vivo, read-out: Vdss
[18] = Cmax in Cynomolgus monkey rat at 5 mg/kg, po measured upto 24 hrs; format: ADME, organism-based, Macaca fascicularis; set-up: route oral, dose 5 mg/kg, time <=24; conditions: in vivo
[19] = AUC (0-t) in Cynomolgus monkey rat at 5 mg/kg, po measured upto 24 hrs; format: ADME, organism-based, Macaca fascicularis; set-up: route oral, dose 5 mg/kg, time <=24; conditions: in vivo
[20] = Half life in Cynomolgus monkey rat at 5 mg/kg, po measured upto 24 hrs; format: ADME, organism-based, Macaca fascicularis; conditions: in vivo
[21] = Oral bioavailability in Cynomolgus monkey rat at 5 mg/kg measured upto 24 hrs; format: ADME, organism-based, Macaca fascicularis; conditions: in vivo

SMILES: Cc1cc(OCc2cccc(F)c2)ccc1CN1C[C@H](F)C[C@H]1C(N)=O
- IC50 [2]: > 10 µM

SMILES: NC(=O)[C@@H]1C[C@@H](O)CN1Cc1ccc(OCc2cccc(F)c2)cc1
- IC50 [2]: > 10 µM

SMILES: NC(=O)[C@@H]1CCCN1Cc1ccc(OCc2cccc(F)c2)cc1
- Ratio IC50 [3]: 168
- Cmax [4]: 809 ng/mL
- AUC(0-t) at 24 h [5]: 347 ng·h/mL
- half-life [6]: 0.37 h
- Vd [7]: 1.11 L/kg
- clearance [8]: 47.1 mL/min/kg
- Cmax [9]: 163 ng/mL
- AUC(0-t) at 24 h [10]: 284 ng·h/mL
- half-life [11]: 1.27 h
- bioavailability [12]: 16.3%

SMILES: NC(=O)[C@@H]1C[C@H](F)CN1Cc1ccc(OCc2cccc(F)c2)cc1F
- IC50 [1]: 29.4 µM
- Ratio IC50 [3]: 979

SMILES: NC(=O)[C@H]1C[C@@H](F)CN1Cc1ccc(OCc2cccc(F)c2)cc1
- IC50 [2]: > 10 µM

SMILES: NC(=O)[C@@H]1C[C@@H](F)CN1Cc1ccc(OCc2cccc(F)c2)cc1Cl
- IC50 [2]: > 10 µM

SMILES: C[C@H](NCc1ccc(OCc2cccc(F)c2)cc1)C(N)=O [SAFINAMIDE]
- Activity [13]: Non-Toxic
- Cmax [4]: 282 ng/mL
- AUC(0-t) at 24 h [5]: 253 ng·h/mL
- half-life [6]: 1.03 h
- Vd [7]: 4.21 L/kg
- clearance [8]: 65.5 mL/min/kg
- Cmax [9]: 423 ng/mL
- AUC(0-t) at 24 h [10]: 795 ng·h/mL
- half-life [11]: 1.02 h
- bioavailability [12]: 63.2%
- Cmax [14]: 1080 ng/mL
- AUCt [15]: 2120 ng·h/mL
- half-life [16]: 2.74 h
- Vd [17]: 7.15 L/kg
- Cmax [18]: 1970 ng/mL
- AUC(0-t) at 24 h [19]: 13100 ng·h/mL
- half-life [20]: 4.6 h
- bioavailability [21]: 111%

Further compounds by falling IC50 [2], results first:

- IC50 [1]: 28.2 µM
- IC50 [2]: 2.19 µM
SMILES: NC(=O)[C@@H]1C[C@@H](F)CN1Cc1ccc(OCc2cccc(F)c2)cc1F
- Ratio IC50 [3]: 13

- IC50 [1]: 42.2 µM
- IC50 [2]: 2.18 µM
SMILES: C[C@@H]1C[C@@H](C(N)=O)N(Cc2ccc(OCc3cccc(F)c3)cc2)C1
- Ratio IC50 [3]: 19

- IC50 [1]: 20.5 µM
- IC50 [2]: 0.82 µM
SMILES: Cc1cc(OCc2cccc(F)c2)ccc1CN1C[C@@H](F)C[C@H]1C(N)=O
- Ratio IC50 [3]: 25

- IC50 [1]: 24 µM
- IC50 [2]: 0.772 µM
SMILES: NC(=O)[C@@H]1C[C@@H](F)CN1Cc1ccc(OCc2cccc(F)c2)cc1
- Ratio IC50 [3]: 31

- IC50 [1]: 6.74 µM
- IC50 [2]: 0.709 µM
SMILES: NC(=O)[C@H]1C[C@H](F)CN1Cc1ccc(OCc2cccc(F)c2)cc1
- Ratio IC50 [3]: 10

- IC50 [1]: 84.5 µM
- IC50 [2]: 0.431 µM
SMILES: NC(=O)[C@@H]1C[C@H](O)CN1Cc1ccc(OCc2cccc(F)c2)cc1
- Ratio IC50 [3]: 196

- IC50 [1]: 5.18 µM
- IC50 [2]: 0.14 µM
SMILES: NC(=O)[C@@H]1C[C@H](F)CN1Cc1ccc(OCc2cccc(F)c2)cc1Cl
- Ratio IC50 [3]: 37

- IC50 [1]: 27.5 µM
- IC50 [2]: 0.082 µM
- Cmax [4]: 174 ng/mL
- AUC(0-t) at 24 h [5]: 209 ng·h/mL
- half-life [6]: 0.73 h
- Vd [7]: 4.56 L/kg
- clearance [8]: 79.1 mL/min/kg
- Cmax [9]: 69.1 ng/mL
- AUC(0-t) at 24 h [10]: 176 ng·h/mL
- half-life [11]: 0.96 h
- bioavailability [12]: 16.9%
SMILES: C[C@H]1C[C@@H](C(N)=O)N(Cc2ccc(OCc3cccc(F)c3)cc2)C1
- Ratio IC50 [3]: 335
